Earlier results in patent US20240180852A1, “TREATMENT FOR MALIGNANT PLEURAL EFFUSION IN HUMANS” (Signpath Pharma, Inc., priority 2021, published 2024).

Experiments:
[1] = in vivo

For COc1cc(C=CC(=O)CC(=O)C=Cc2ccc(O)c(OC)c2)ccc1O [curcumin, 1,7-bis(4-hydroxy-3-methoxyphenyl)-1,6-heptadiene-3,5-dione], the bioavailability [1] is listed as “low bioavailability” and the solubility is listed as “low solubility”.
